The experiment has as its target T1, human GPR119 (hGPR119) (Homo sapiens, UniProt Q8TDV5).
T1 construct: expressed in transfected cells
T1 sequence (Q8TDV5 1-335): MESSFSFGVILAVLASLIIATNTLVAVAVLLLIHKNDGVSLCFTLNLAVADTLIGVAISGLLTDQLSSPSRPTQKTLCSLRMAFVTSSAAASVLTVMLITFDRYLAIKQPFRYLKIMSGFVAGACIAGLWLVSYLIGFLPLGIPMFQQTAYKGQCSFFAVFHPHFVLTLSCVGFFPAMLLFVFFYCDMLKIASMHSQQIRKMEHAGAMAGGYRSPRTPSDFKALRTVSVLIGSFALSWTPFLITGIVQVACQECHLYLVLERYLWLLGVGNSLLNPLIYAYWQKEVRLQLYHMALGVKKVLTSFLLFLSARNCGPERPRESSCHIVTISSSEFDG
Description: cAMP accumulation assay (Cisbio cAMP Gs dynamic HTRF kit) in CHO-K1 cells stably expressing human GPR119. Type of experiment: cell-based. Conditions: 4-parameter fit; for Emax: 1 h, % activity normalized to Max and Min controls; for EC50: 60 minutes at 37° C. How it is done:
CHO-K1 cells stably expressing human GPR119 (hGPR119) were prepared by transfection of a GPR119-carrying plasmid using Lipofectamine 2000 (following manufacturer instructions). A stable cell line was established using the limiting dilution method with geneticine selection. Assay-ready frozen (ARF) cells were prepared and used throughout the study.
The assay was performed in a 384-well plate format using the cAMP Gs dynamic assay kit from Cisbio. ARF cells expressing hGPR119 were thawed, washed and then resuspended in cAMP stimulation buffer at a cell density of 1.1×10^6 cells/mL. Cells were plated at a density of ˜10,000 cells/well (9 μL/well). Dose response curves for the tested compounds were prepared in a cAMP stimulation buffer, containing 0.1% Tween 80 at 4 fold the final concentration. The compounds were then transferred to the cell plates using BRAVO (3 μL/well) and the plates were incubated for 60 minutes at 37° C./5% CO2. Detection buffer (10 μL, prepared as described in the cAMP Gs dynamic kit) were added to each well, and the plates were incubated at ambient temperature for 1 hr.
RT-FRET was measured using a ClarioSTAR plate reader, calculating the ratio between emissions at 665 nm and 620 nm (HTRF ratio). The HTRF ratio for positive (Max) and negative (Min) controls were used to normalize HTRF data and generate values for % activity. EC50 and Max activity values were determined using a standard 4-parameter fit.
In general terms: Changes in cAMP serve as a functional read-out for many G protein-coupled receptors.

Our source for the Emax and EC50 values is US20240217983A1, “GPR119 AGONISTS” (Kallyope, Inc., priority 2021, published 2024).

As usually defined, the Emax is the maximal effect, on the per cent scale that the assay sets. A word on the EC50: it is the concentration giving half of the maximal effect. Read a high EC50 as a less potent agent.

Where only a bound is given, the exact number is not on record here.

`O=C(Cc1ccc(OCCCC2CCN(c3ncc(Cl)cn3)CC2)cc1F)N1CCC2(CCCN2C[C@H](O)[C@@H](O)[C@H](O)[C@H](O)CO)C1` (stereo in doubt) [Example 75, 2-(4-(3-(1-(5-chloropyrimidin-2-yl)piperidin-4-yl)propoxy)-2-fluorophenyl)-1-(1-((2S,3R,4R,5R)-2,3,4,5,6-pentahydroxyhexyl)-1,7-diazaspiro[4.4]nonan-7-yl)ethan-1-one]: the maximal response (Emax) was at least 130% and the EC50 was at most 0.1 µM.

`O=C(Cc1ccc(OCCCC2CCN(c3ncc(Cl)cn3)CC2)cc1F)N1CCC2(CCCC2NC[C@H](O)[C@@H](O)[C@H](O)[C@H](O)CO)C1` (stereo in doubt) [Example 77, 2-(4-(3-(1-(5-chloropyrimidin-2-yl)piperidin-4-yl)propoxy)-2-fluorophenyl)-1-(6-(((2S,3R,4R,5R)-2,3,4,5,6-pentahydroxyhexyl)amino)-2-azaspiro[4.4]nonan-2-yl)ethan-1-one] came in with an Emax of at least 130% and an EC50 of at most 0.1 µM.

Compound `O=C(Cc1ccc(OCCCC2CCN(c3ncc(Cl)cn3)CC2)cc1F)N1CC2(CCC2NC[C@H](O)[C@@H](O)[C@H](O)[C@H](O)CO)C1` (stereo in doubt) [Example 79, 2-(4-(3-(1-(5-chloropyrimidin-2-yl)piperidin-4-yl)propoxy)-2-fluorophenyl)-1-(5-(((2S,3R,4R,5R)-2,3,4,5,6-pentahydroxyhexyl)amino)-2-azaspiro[3.3]heptan-2-yl)ethan-1-one] displayed an Emax of at least 130% and an EC50 of at most 0.1 µM.

Consider `O=C(Cc1ccc(OCCCC2CCN(c3ncc(Cl)cn3)CC2)cc1F)N1CC[C@]2(CCC2NCC(O)C(O)C(O)CO)C1` (stereo in doubt) [Example 84, 2-(4-(3-(1-(5-chloropyrimidin-2-yl)piperidin-4-yl)propoxy)-2-fluorophenyl)-1-(1-(((2S,3S,4R)-2,3,4,5-tetrahydroxypentyl)amino)-6-azaspiro[3.4]octan-6-yl)ethan-1-one], for which the maximal response (Emax) was at least 130% and the EC50 was at most 0.1 µM.

`O=C(CCCCS(=O)(=O)O)N1CCC2(CCN(C(=O)Cc3ccc(OCCCC4CCN(c5ncc(Cl)cn5)CC4)cc3F)C2)C1` (centres unmarked) [Example 1, 5-(7-(2-(4-(3-(1-(5-chloropyrimidin-2-yl)piperidin-4-yl)propoxy)-2-fluorophenyl)acetyl)-2,7-diazaspiro[4.4]nonan-2-yl)-5-oxopentane-1-sulfonic acid] registered an Emax of 100 to 130% and a concentration giving a half-maximal response (EC50) of at most 0.1 µM.

Consider `O=C(Cc1ccc(OCCCC2CCN(c3ncc(Cl)cn3)CC2)cc1F)N1CCC2(C1)CN(C(=O)CCCCS(=O)(=O)O)C2` [Example 2, 5-(6-(2-(4-(3-(1-(5-chloropyrimidin-2-yl)piperidin-4-yl)propoxy)-2-fluorophenyl)acetyl)-2,6-diazaspiro[3.4]octan-2-yl)-5-oxopentane-1-sulfonic acid], for which the Emax is at least 130% and the EC50 is at most 0.1 µM.

In turn, `O=C(CCCCS(=O)(=O)O)N1CC2(C1)CN(C(=O)Cc1ccc(OCCCC3CCN(c4ncc(Cl)cn4)CC3)cc1F)C2` [Example 3, 5-(6-(2-(4-(3-(1-(5-chloropyrimidin-2-yl)piperidin-4-yl)propoxy)-2-fluorophenyl)acetyl)-2,6-diazaspiro[3.3]heptan-2-yl)-5-oxopentane-1-sulfonic acid] returned an Emax of 100 to 130% and an EC50 of at most 0.1 µM.

Turning to `O=C(Cc1ccc(OCCCC2CCN(c3ncc(Cl)cn3)CC2)cc1F)N1CCC2(CCN2C(=O)CCCCS(=O)(=O)O)C1` (centres unmarked) [Example 4, 5-(6-(2-(4-(3-(1-(5-chloropyrimidin-2-yl)piperidin-4-yl)propoxy)-2-fluorophenyl)acetyl)-1,6-diazaspiro[3.4]octan-1-yl)-5-oxopentane-1-sulfonic acid], the maximal response (Emax) was in the range of 100 to 130% and the EC50 is at most 0.1 µM.

In turn, `O=C(Cc1ccc(OCCCC2CCN(c3ncc(Cl)cn3)CC2)cc1F)N1CC2(CCN2C(=O)CCCCS(=O)(=O)O)C1` [Example 5, 5-(6-(2-(4-(3-(1-(5-chloropyrimidin-2-yl)piperidin-4-yl)propoxy)-2-fluorophenyl)acetyl)-1,6-diazaspiro[3.3]heptan-1-yl)-5-oxopentane-1-sulfonic acid] yielded an Emax of 100 to 130% and an EC50 of at most 0.1 µM.

As to `O=C(Cc1ccc(OCCCC2CCN(c3ncc(Cl)cn3)CC2)cc1F)N1C[C@@H]2CCN(C(=O)CCCCS(=O)(=O)O)[C@@H]2C1` [Example 6, 5-((3aS,6aS)-5-(2-(4-(3-(1-(5-chloropyrimidin-2-yl)piperidin-4-yl)propoxy)-2-fluorophenyl)acetyl)hexahydropyrrolo[3,4-b]pyrrol-1(2H)-yl)-5-oxopentane-1-sulfonic acid], the Emax is at least 130% and the 50% effective concentration (EC50) was at most 0.1 µM.

`O=C(Cc1ccc(OCCCC2CCN(c3ncc(Cl)cn3)CC2)cc1F)N1C[C@H]2CN(C(=O)CCCCS(=O)(=O)O)[C@H]2C1` [Example 7, 5-((1S,5R)-3-(2-(4-(3-(1-(5-chloropyrimidin-2-yl)piperidin-4-yl)propoxy)-2-fluorophenyl)acetyl)-3,6-diazabicyclo[3.2.0]heptan-6-yl)-5-oxopentane-1-sulfonic acid] yielded an Emax of 100 to 130% and an EC50 of 0.1 to 1 µM.

`O=C(CCCCS(=O)(=O)O)N1C[C@H]2CN(C(=O)Cc3ccc(OCCCC4CCN(c5ncc(Cl)cn5)CC4)cc3F)[C@H]2C1` [Example 8, 5-((1S,5R)-6-(2-(4-(3-(1-(5-chloropyrimidin-2-yl)piperidin-4-yl)propoxy)-2-fluorophenyl)acetyl)-3,6-diazabicyclo[3.2.0]heptan-3-yl)-5-oxopentane-1-sulfonic acid]: the Emax was 100 to 130% and the EC50 is at most 0.1 µM.

With `O=C(CCCCS(=O)(=O)O)N1CC2(CCN2C(=O)Cc2ccc(OCCCC3CCN(c4ncc(Cl)cn4)CC3)cc2F)C1` [Example 9, 5-(1-(2-(4-(3-(1-(5-chloropyrimidin-2-yl)piperidin-4-yl)propoxy)-2-fluorophenyl)acetyl)-1,6-diazaspiro[3.3]heptan-6-yl)-5-oxopentane-1-sulfonic acid], the Emax was 100 to 130% and the concentration for a half-maximal effect (EC50) is above 10 µM.

Regarding `O=C(CCCCS(=O)(=O)O)N1C[C@@H]2CN(C(=O)Cc3ccc(OCCCC4CCN(c5ncc(Cl)cn5)CC4)cc3F)C[C@@H]2C1` [Example 10, 5-((3aR,6aS)-5-(2-(4-(3-(1-(5-chloropyrimidin-2-yl)piperidin-4-yl)propoxy)-2-fluorophenyl)acetyl)hexahydropyrrolo[3,4-c]pyrrol-2(1H)-yl)-5-oxopentane-1-sulfonic acid], the Emax was in the range of 100 to 130% and the EC50 was at most 0.1 µM.

For `O=C(CCCCS(=O)(=O)O)N1C[C@H]2C[C@@H]1CN2C(=O)Cc1ccc(OCCCC2CCN(c3ncc(Cl)cn3)CC2)cc1F` [Example 11, 5-((1R,4R)-5-(2-(4-(3-(1-(5-chloropyrimidin-2-yl)piperidin-4-yl)propoxy)-2-fluorophenyl)acetyl)-2,5-diazabicyclo[2.2.1]heptan-2-yl)-5-oxopentane-1-sulfonic acid], the Emax lay in the range of 100 to 130% and the 50% effective concentration (EC50) is at most 0.1 µM.

Compound `O=C(Cc1ccc(OCCCC2CCN(c3ncc(Cl)cn3)CC2)cc1F)N1CC2CC(C1)N2C(=O)CCCCS(=O)(=O)O` [Example 12, 5-(3-(2-(4-(3-(1-(5-chloropyrimidin-2-yl)piperidin-4-yl)propoxy)-2-fluorophenyl)acetyl)-3,6-diazabicyclo[3.1.1]heptan-6-yl)-5-oxopentane-1-sulfonic acid] had an Emax of 100 to 130% and an EC50 of at most 0.1 µM.

With `O=C(CCCCS(=O)(=O)O)N1CCCN(C(=O)Cc2ccc(OCCCC3CCN(c4ncc(Cl)cn4)CC3)cc2F)CC1` [Example 13, 5-(4-(2-(4-(3-(1-(5-chloropyrimidin-2-yl)piperidin-4-yl)propoxy)-2-fluorophenyl)acetyl)-1,4-diazepan-1-yl)-5-oxopentane-1-sulfonic acid], the maximal response (Emax) is 100 to 130% and the EC50 is 0.1 to 1 µM.

Compound `O=C(CCCCS(=O)(=O)O)N1CC2CCC1CN2C(=O)Cc1ccc(OCCCC2CCN(c3ncc(Cl)cn3)CC2)cc1F` (centres unmarked) [Example 14, 5-(5-(2-(4-(3-(1-(5-chloropyrimidin-2-yl)piperidin-4-yl)propoxy)-2-fluorophenyl)acetyl)-2,5-diazabicyclo[2.2.2]octan-2-yl)-5-oxopentane-1-sulfonic acid] yielded an Emax of 100 to 130% and an EC50 of at most 0.1 µM.

Consider `O=C(CCCCS(=O)(=O)O)N1C[C@@H]2C[C@H]1CN2C(=O)Cc1ccc(OCCCC2CCN(c3ncc(Cl)cn3)CC2)cc1F` [Example 15, 5-((1S,4S)-5-(2-(4-(3-(1-(5-chloropyrimidin-2-yl)piperidin-4-yl)propoxy)-2-fluorophenyl)acetyl)-2,5-diazabicyclo[2.2.1]heptan-2-yl)-5-oxopentane-1-sulfonic acid], for which the Emax lay in the range of 100 to 130% and the EC50 was at most 0.1 µM.
